Measurements taken from patent US20060241082A1, “Modulating vesicular monoamine transporter trafficking and function: a novel approach for the treatment of parkinson's disease” (priority 2002, published 2006).
“And” between values parts separate entries of the source, which are not always exact repeats. Identical values can stand only once. “Also recorded” adds a separate entry of the source. Like-named read-outs stand apart in the source and are kept apart here.

Assays:
VMAT-2 [1] = assay: VMAT-2 immunoreactivity in striatal subcellular fractions (P2, P3, S3) of treated rats (Western blot); format: in vivo, rat; conditions: 1 h
Experimental: Striatal synaptosomes were prepared from rats decapitated 1 h after treatment as previously described (Fleckenstein et al., 1997). Briefly, striatal tissue was homogenized in cold 0.32 M sucrose and centrifuged (800×g for 12 min; 4° C.). The supernatant (S1) was then centrifuged (22,000×g for 15 min; 4° C.) and the resulting pellet (P2, synaptosomal fraction) was resuspended at 50 mg original wet weight/ml in cold water and a portion saved for western blot analysis. The remainder of the synaptosomal sample was centrifuged for 20 min at 22,000×g (4° C.) to pellet lysed synaptosomal membranes (P3, synaptosomal membrane fraction), which were then resuspended at 50 mg original wet weight/ml and saved for western blot analysis. Prior to resuspension of the plasmalemmal membrane fraction the supernatant (S3, vesicle-enriched fraction) was removed and saved for western blot analysis.
Binding of VMAT-2 antibody was performed using 60 μl aliquots of synaptosomal (P2), synaptosomal membrane (P3), or vesicle-enriched (S3) preparations. Each aliquot was added to 20 μl of loading buffer (final concentration: 2.25% sodium dodecyl sulfate, 18% glycerol, 180 mM Tris base (pH 6.8), 10% β-mercapto-ethanol and bromophenol blue), boiled for 10 min, and loaded on a 10% sodium dodecyl sulfate-polyacrylamide gel. Following electrophoresis, samples were transferred to polyvinlylidene difluoride membrane, blocked with 5% nonfat dry milk in Tris-buffered saline with tween (250 mM NaCl, 50 mM Tris pH 7.4 and 0.05% Tween 20), and probed with the VMAT-2 antibody (provided by J.W.H.). Bound antibody was visualized with HRP-conjugated goat anti-rabbit antibody, and antigen-antibody complexes were visualized by chemiluminescence. Multiple exposures of blots were obtained to ensure development within the linear range of the film. Bands on blots were quantified by densitometry using Kodak 1D image-analysis software.
Fresh striatal tissue was homogenized in ice-cold 0.32 M sucrose and centrifuged (800×g for 12 min; 4° C.). […] Resuspended tissue was aliquoted into two test tubes. One aliquot was centrifuged (22,000×g for 10 min; 4° C.) to separate plasmalemmal membranes from the synaptic vesicle-enriched fraction. The resulting supernatant (S3) contained the vesicular subcellular fraction of interest, and the pellets (P3; plasmalemmal membrane fraction) were resuspended in cold distilled deionized water.
VMAT-2 antibody was purchased from Chemicon (Temecula, Calif.; AB1767). Binding of VMAT-2 antibody was performed using 60 μl of whole synaptosomal, plasmalemmal membrane or vesicle subcellular fractions. Samples were added to 20 μl of loading buffer (final concentration: 2.25% SDS, 18% glycerol, 180 mM Tris Base (pH 6.8), 10% […] and bromophenol blue). Approximately 60 μg protein of the whole synaptosomal fraction, 40 μg protein of the plasmalemmal membrane fraction or 20 μg protein of the vesicle subcellular fraction was loaded per well in a 10% SDS-polyacrylamide gel. Following electrophoresis, samples were transferred to polyvinylidene difluoride hybridization transfer membrane (New England Nuclear (NEN), Boston, Mass.). All subsequent incubation steps were performed at room temperature while shaking. Each membrane was first blocked for 2 h in 100 ml of tris buffer saline with tween (TBST; 250 mM NaCl, 50 mM tris pH 7.4 and 0.05% tween 20) containing 5% nonfat dry milk. Each membrane was then incubated with anti-VMAT-2 antibody (1:4000 dilution) in 13 ml of TBST with 5% milk for 1 h and then washed 5 times (2×1 min wash; 3×5 min wash) in 70 ml TBST with 5% milk.

VMAT-2 [2] = target: VMAT-2 (Mus musculus, UniProt Q8BRU6); assay: Vesicular [3H]dopamine uptake in striatal vesicles prepared from treated mice; format: in vivo
Chain of VMAT-2 (Mus musculus, UniProt Q8BRU6) (Q8BRU6 whole entry): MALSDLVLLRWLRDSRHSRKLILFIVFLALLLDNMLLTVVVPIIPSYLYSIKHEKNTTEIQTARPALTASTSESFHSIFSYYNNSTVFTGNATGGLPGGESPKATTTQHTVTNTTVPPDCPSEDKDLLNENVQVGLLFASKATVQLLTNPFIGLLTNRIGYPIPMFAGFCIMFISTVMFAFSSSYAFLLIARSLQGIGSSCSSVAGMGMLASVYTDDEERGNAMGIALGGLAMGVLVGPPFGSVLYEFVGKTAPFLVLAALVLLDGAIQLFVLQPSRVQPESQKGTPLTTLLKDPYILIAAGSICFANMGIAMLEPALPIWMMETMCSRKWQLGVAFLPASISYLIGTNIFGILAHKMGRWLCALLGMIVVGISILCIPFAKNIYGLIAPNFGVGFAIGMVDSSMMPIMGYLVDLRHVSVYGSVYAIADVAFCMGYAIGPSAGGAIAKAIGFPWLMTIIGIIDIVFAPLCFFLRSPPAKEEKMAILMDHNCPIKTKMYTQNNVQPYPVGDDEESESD
Experimental: (A. E. Fleckenstein, et al., J. Pharmacol Exp Ther. (1997) 282:834-838). Briefly, fresh tissue was homogenized in ice-cold 0.32 M sucrose. The homogenate was centrifuged (800×g for 12 min; 4° C.), and the supernatant (S1) was carefully removed and centrifuged (22,000×g for 15 min; 4° C.) to obtain the synaptosomal-containing pellet (P2). The resulting P2 were resuspended and homogenized in ice-cold distilled deionized water. Osmolarity was restore by addition 25 mM HEPES and 100 mM potassium tartrate (final concentration; pH 7.5 at 4° C. respectively). […] The resultant S3 removed and MgSO4 added (final concentration of [1 mM] pH 7.5 at 4° C.) and centrifuged at 100,000×g for 45 min. The final P4 were resuspended at 50 mg/ml (original tissue wet weight).

VMAT-2 [3] = target: T1, VMAT-2 (Rattus norvegicus, UniProt Q01827); format: in vivo; set-up: purified striatal vesicles prepared from treated rats; from tissue; host or cells: striatum of male Sprague-Dawley rats (synaptic vesicles; P2, P3, S3 fractions); conditions: for Km: read-out: Km of vesicular [3H]DA uptake
T1 sequence (Q01827 whole entry): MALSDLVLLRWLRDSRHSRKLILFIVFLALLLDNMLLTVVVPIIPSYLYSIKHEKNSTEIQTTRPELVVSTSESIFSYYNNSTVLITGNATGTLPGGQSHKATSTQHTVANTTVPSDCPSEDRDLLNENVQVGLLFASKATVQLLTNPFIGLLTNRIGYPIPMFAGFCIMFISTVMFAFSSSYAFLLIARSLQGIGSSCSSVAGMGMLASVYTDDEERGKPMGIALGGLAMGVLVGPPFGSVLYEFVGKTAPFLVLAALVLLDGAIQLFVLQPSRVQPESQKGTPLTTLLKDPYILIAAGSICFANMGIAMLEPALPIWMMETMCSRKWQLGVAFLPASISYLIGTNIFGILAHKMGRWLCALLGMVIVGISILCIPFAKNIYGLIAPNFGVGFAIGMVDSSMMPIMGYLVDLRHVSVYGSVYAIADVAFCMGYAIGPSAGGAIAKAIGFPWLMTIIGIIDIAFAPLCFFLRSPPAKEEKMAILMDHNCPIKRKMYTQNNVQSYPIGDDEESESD
Experimental: Osmolarity was restored by addition of N-(2-hydroxyethyl)-piperazine-N′-2-ethanesulfonic acid (HEPES) and potassium tartrate 25 mM and 100 mM (final concentrations; pH 7.5 at 4° C.), respectively.

[4] = Vesicular DA content in purified striatal vesicles of treated rats; format: in vivo, rat
Experimental: Purified striatal vesicles were prepared as described above. The resulting vesicular pellet was sonicated for approximately 5 sec in cold tissue buffer (0.05 M sodium phosphate/0.03 M citric acid buffer with 15% methanol (v/v); pH 2.5) at a concentration of 100 mg/ml (original wet weight of tissue), and centrifuged for 15 min at 22,000×g. Tissue pellets were retained and protein was determined according to the method of Lowry et al. (1951). 40 μl of supernatant was injected onto a high performance liquid chromatograph system coupled to an electrochemical detector (+0.73 V) for separation and quantitation of DA levels using the method of Chapin et al. (1986).

VMAT-2 [5] = target: T1, VMAT-2; assay: [3H]DHTBZ binding in purified striatal vesicles prepared from treated rats
Experimental: Synaptic vesicles were obtained from synaptosomes prepared from rat striatum as described above. Synaptosomes were resuspended and homogenized in cold distilled deionized water. Osmolarity was restored by addition of HEPES and potassium tartrate 245 and 100 mM (final concentrations; pH 7.5), respectively. Samples were centrifuged for 20 min at 20,000×g (4° C.) to remove lysed synaptosomal membranes. MgSO4 (1 mM, final concentration) was added to the supernatant, which was then centrifuged for 45 min at 100,000×g (4° C.). The resulting vesicular pellet was resuspended in wash buffer at a concentration of 50 mg/ml (original tissue weight). […] Binding of [^3H]DHTBZ was performed as described by Teng et al. (1998). Briefly, 200 μl of the synaptic vesicle preparation (˜6 μg of protein) was incubated in wash buffer in the presence of [^3H]DHTBZ (2 nM final concentration) for 10 min at 25° C. The reaction was terminated by addition of 1 ml of cold wash buffer and rapid filtration through Whatman GF/F filters soaked in 0.5% polyethylenimine. Filters were washed three times with ice-cold wash buffer. Nonspecific binding was determined by coincubation with 20 μM tetrabenazine. All protein concentrations were determined by a BioRad protein assay (Bio-Rad, Richmond, Calif.).
Binding of [^3H]DHTBZ was performed as described by Teng et al. (1998). Briefly, 200 μl (˜6 μg protein) of the synaptic vesicle preparation was incubated in wash buffer in the presence of [^3H]DHTBZ (2 nM final concentration except in kinetic analyses wherein 0.25-500 nM DHTBZ was employed) for 10 m in at 25° C. The reaction was terminated by addition of 1 ml cold wash buffer and rapid filtration through Whatman GF/F filters soaked in 0.5% polyethylenimine. Filters were washed three times with ice-cold wash buffer. Radioactivity trapped in filters was counted using a liquid scintillation counter. Nonspecific binding was determined by coincubation with 20 μM TBZ. All protein concentrations were determined by a Bio-Rad protein assay (Bio-Rad Inc.).
Binding of[^3H]DHTBZ was performed as described by Teng et al. (1998). Briefly, 200 μl (˜5 μg protein) of the synaptic vesicle preparation was incubated in wash buffer in the presence of [^3H]DHTBZ (2 nM final concentration except in kinetic analyses wherein 0.25-500 nM DHTBZ was employed) for 10 m in at 25° C. The reaction was terminated by addition of 1 ml cold wash buffer and rapid filtration through Whatman GF/F filters soaked in 0.5% polyethylenimine. Filters were washed three times with ice-cold wash buffer. Radioactivity trapped in filters was counted using a liquid scintillation counter. Nonspecific binding was determined by coincubation with 20 μM TBZ. All protein concentrations were determined by a Bio-Rad protein assay (Bio-Rad Inc.).

[6] = MPD-treated rats, 40 mg/kg s.c., 1 h
[7] = rats, MPD 5 mg/kg s.c. injections
[8] = METH 4 x 7.5 mg/kg s.c., 2-h intervals
[9] = methamphetamine 4 x 10 mg/kg s.c.
[10] = rats, METH 4 x 7.5 mg/kg s.c., 2-h intervals
[11] = rats, single 15 mg/kg METH injection s.c., 1 h

COC(=O)C(c1ccccc1)C1CCCCN1 (centres unmarked) [MPD, methylphenidate]
VMAT-2 immunoreactivity in the plasmalemmal membrane fraction (VMAT-2 [1]; MPD 40 mg/kg s.c. single): decreased | VMAT-2 immunoreactivity in the vesicular subcellular fraction (VMAT-2 [1]; MPD 40 mg/kg s.c. single): increases | VMAT-2 immunoreactivity in the whole synaptosomal fraction (VMAT-2 [1]; MPD 40 mg/kg s.c. single): no change | vesicular dopamine uptake after a single injection (VMAT-2 [2]; methylphenidate 10 mg/kg s.c. or cocaine 30 mg/kg i.p., vesicles prepared 1 h after treatment): increased | transporter Vmax of vesicular [3H]DA uptake (VMAT-2 [3]; [6]): 2350±250 fmol/μg protein/3 min | Km (VMAT-2 [3]; [6]): 0.23 ± 0.01 µM | effect of MPD post-treatment on the METH-induced decrease in vesicular DA uptake (VMAT-2 [3]; rat, in vivo): reversed | vesicular DA uptake after MPD treatment per se (VMAT-2 [3]; [7]): increased | vesicular [3H]DA uptake after a single MPD administration (VMAT-2 [3]; rats, MPD 5, 10, 20, or 40 mg/kg s.c., 1 h): increases | reversal of the increases in vesicular [3H]DA uptake and [3H]DHTBZ binding (VMAT-2 [3]; rats, after a 40 mg/kg MPD administration): ≤ 12 h | onset of the increases in vesicular [3H]DA uptake and [3H]DHTBZ binding (VMAT-2 [3]; rats, single MPD s.c.): ≤ 30 min | increase in vesicular DA levels ([4]; rats, 3 injections of MPD 5 mg/kg s.c. over a 5 h period, 1 h after the last MPD injection): ~140% | effect of MPD post-treatment on the METH-induced decrease in vesicular DA content ([4]; rats, 3 injections of MPD after multiple METH regimen, 6 h after METH treatment): reversed | transporter Bmax for [3H]DHTBZ (VMAT-2 [5]; MPD-treated rats): 28.87 fmol/μg protein | effect of MPD post-treatment on the METH-induced decrease in DHTBZ binding (VMAT-2 [5]; rats, 1, 2 or 3 injections of MPD 5 mg/kg s.c. during the initial 6-h period after METH): reversed | DHTBZ binding after MPD treatment per se (VMAT-2 [5]; [7]): increased | binding of the VMAT-2 ligand [3H]DHTBZ after a single MPD administration (VMAT-2 [5]; rats, MPD 5-40 mg/kg s.c., 1 h): increase

CN[C@@H](C)Cc1ccccc1 (racemic) [METH, methamphetamine]
VMAT-2 immunoreactivity in the plasmalemmal membrane fraction (P3) (VMAT-2 [1]; [8]): no change | VMAT-2 immunoreactivity in the vesicular subcellular fraction (S3) (VMAT-2 [1]; [8]): rapidly decreased | VMAT-2 immunoreactivity in the whole synaptosomal fraction (P2) (VMAT-2 [1]; [8]): Slight decreases; also recorded: no change | decrease in VMAT-2 immunoreactivity in the P2 fraction (VMAT-2 [1]; methamphetamine 4 x 10 mg/kg s.c., 2-h intervals): 25% | decrease in VMAT-2 immunoreactivity in the P2 fraction (VMAT-2 [1]; methamphetamine 4 x 10 mg/kg s.c., 2-h intervals, listed as methamphetamine): 40% | VMAT-2 immunoreactivity in the P3 fractions (VMAT-2 [1]; [9]): no difference | decrease in VMAT-2 immunoreactivity in the S3 fraction (VMAT-2 [1]; [9]): 80% | vesicular [3H]dopamine uptake (VMAT-2 [2]; methamphetamine 4 x 10 mg/kg s.c., 2-h intervals, 1 and 24 h after treatment): rapidly decreased | persistence of the decreases in vesicular DA uptake and DHTBZ binding after treatment (VMAT-2 [3]; rats, METH 4 x 7.5 mg/kg s.c.): at least 6 h | vesicular DA uptake 1 h after the last METH injection (VMAT-2 [3]; [10]): rapidly decreased | Vmax of vesicular [3H]DA uptake (VMAT-2 [3]; [11]): 607 fmol/μg protein/min | Km (VMAT-2 [3]; [11]): 0.187 µM | decrease in vesicular [3H]DA uptake (VMAT-2 [3]; rats, single METH 15 mg/kg s.c., 1 h): 25% and 23% | deficit in vesicular [3H]DA uptake 24 h after treatment (VMAT-2 [3]; rats, single METH 15 mg/kg s.c., 24 h): recovered | vesicular DA levels ([4]; METH-treated rats, 4 x 7.5 mg/kg s.c., 1 h after treatment, n=6): 2.30±2.5 pg/μg protein | decrease in vesicular DA levels ([4]; rats, METH 4 x 7.5 mg/kg s.c., 2-h intervals, 1 h after treatment): 49% | decrease in vesicular DA content ([4]; rats, multiple METH, 6 h after drug treatment): 60% | DHTBZ binding 1 h after the last METH injection (VMAT-2 [5]; [10]): rapidly decreased
